Results reported in patent US20250312440A1, “CHEMICAL SCREEN OF MODULATORS FOR VACCINE ADJUVANTS” (THE UNIVERSITY OF CHICAGO, priority 2022, published 2025).

Assays:
[1] = system: human THP-1 monocytes; test: Cytokine level screening in THP-1 cells (AlphaLISA/AlphaPlex, modulator + agonist); format: cell-based
Protocol: THP-1 cells were seeded at 50,000 cells per well in 45 μL of biotin-free RPMI+5% HI-FBS in clear 384 well plates. Following 24h incubation, 50 nL of 10 mM modulator libraries were added by Janus G3 via pintool to experimental wells (cols 3-22) for a final concentration of 10 μM. After 1 hour, 5 μL of agonist was added via a MultiDrop Combi liquid handler (col 3-23). The following day, 5 μL of supernatant was transferred to white low volume ProxiPlates. 10 μL of a prepared acceptor bead (10 μg/mL final conc), biotinylated antibody (1 nM final conc) mixture was added via liquid handler to the cell supernatant. After 1 hr incubation at RT, 5 μL of donor beads (40 μg/mL final conc) were added in the dark. After an additional 1 hr incubation, plates were read on a plate reader with AlphaPlex filters for europium (615 nm) and terbium (545 nm) emission. A separate plate was run each day containing a standard curve of known analyte for interpolation purposes.
Cytokines and chemokines are a broad category of secreted proteins important for adjuvants in regulating adaptive immunity (23). However, excessive production of cytokines by adjuvants can result in direct tissue damage and are correlated with vaccine tolerability (24, 25). To validate the findings of the primary screening results and to explore the impact on downstream immune outcomes, the inventors measured levels of six cytokines and chemokines involved in inflammation and adaptive responses (IL-12p40, IP-10, IL-1b, CCL4, TNF-α, and IFN-b, Table 4). The inventors measured cytokine expression through AlphaLISA, an assay well-suited to high throughput due to its large dynamic range, in situ measurement, and broad range of cytokines. It has been previously used to investigate small molecule biological inhibitors (26-28).
Cell supernatants were collected and cytokines were measured in three duplex measurements (FIG. 11A). Similarly, the inventors optimized standard curve ranges, crosstalk correction factors, incubation times and other factors of the secondary screen (FIGS. 11B-11D). As in the inventors' primary screen, modulators enhance or inhibit cytokine production among all six cytokines and for each agonist independently (FIGS. 4A-4G, FIG. 11E). The distributions within cytokines vary based on the dynamic range and Z-factor obtained for each cytokine and agonist studied (Table 5). High throughput screening utilizes Z-factors as a proxy for statistical reliability of an assay, due to the dynamic range of the positive controls and the inherent cytokines secreted for each agonist, a Z-factor score greater than zero was not obtained for certain agonists/[…] combinations. Since each agonist produced differing levels of cytokine that were sometimes at the limits of standard curve, amending this assay to a high throughout nature was challenging. […] Since the inventors measured fold-change and reduce dimensionality further in analysis, this approach was adequate to compare compounds within the inventors' dataset for down-selection.
After considering categorical and ranked scoring systems, the inventors decided the best representation of modulator performance would need to preserve cytokine changes but do so by normalizing for each cytokine's and agonist's dynamic range (37). Because of the differences in dynamic range of all the inventors' six cytokines, the inventors sought to normalize the data to ensure no distribution would bias the inventors' results. Thus, the inventors transformed each cytokine's distributions to a range from −1 to 1 (FIG. 5A). Unlike the previous screen, the inventors considered increases and decreases in cytokine responses separately when selecting molecules for vaccination studies. In the vaccine score, a promising candidate would need to produce minimal pro-inflammatory cytokines while increasing IFN-b and chemokine production (24, 25). Additionally, the inventors might prioritize the importance of one cytokine's modulation over another. […]

[2] = system: TNF-α; test: Plasma cytokine analysis 1 hr after OVA vaccination with agonist + modulator; format: in vivo, mice; settings: 1 hr after vaccination, CpG 50 μg + modulator 1.5 μmol
Protocol: All animal procedures were performed under a protocol approved by the University of Chicago Institutional Animal Care and Use Committee (IACUC). 6-to-8-week-old C57/B6 female mice were purchased from the Jackson laboratory. All vaccinations were administered intramuscularly in the hind leg. Blood was collected from the submandibular vein at time points indicated.
Mice were lightly anesthetized with isoflurane and injected intramuscularly in the hind leg with an injection volume of 50 μL containing antigen, adjuvant, and a DMSO/AddaVax combination. Antigen dose was as follows: OVA (100 μg)). Agonists doses were as follows: Flagellin, 10 μg; R848, 50 μg; CpG, 50 μg. Modulators were added at 1.5 μmol.
Blood was collected from mice at specified time points in 0.2 mL of heparin-coated collection tubes (VWR Scientific). […] Plasma was analyzed using Bio-Legend's LegendPlex™ Mouse Inflammation Cytokine Panel (13-Plex) according to the manufacturer's protocol. Samples were analyzed using an ACEA NovoCyte Flow Cytometer. Data were analyzed using LEGENDplex™ Data Analysis Software Suite and GraphPad Prism.
The inventors used the vaccine score to select modulators to test in a murine in vivo model. […] The inventors monitored inflammatory cytokine levels one hour following initial injections and monitored antigen specific antibody levels at the indicated timepoints post-boost (FIG. 6A). […]

[3] = system: IL-6 and TNF-α; settings: with CPG adjuvant; cited from earlier work
[4] = THP-1, 10 μM modulator, across agonists
[5] = THP-1, 10 μM modulator, across receptors studied

CN(C)c1ccc2c(c1)Sc1cc(N(C)C)ccc1N2.CS(=O)(=O)O.CS(=O)(=O)O [TRx0237(LMTX) mesylate]
IFN-b production, modulator+agonist vs agonist alone [1, 4]: enhance IFN-b secretion across all agonists studied
TNF-α enhancement using cGAMP ([1]; THP-1, 10 μM modulator, cGAMP): up to 36 fold

CN1CCN(C2CCN(C(=O)Nc3cc(Oc4ccc(NC(=O)C5(C(=O)Nc6ccc(F)cc6)CC5)c(F)c4)ccn3)CC2)CC1 [compound 2, Golvatinib]
systemic TNF-α for CpG [2]: ~0

Cc1ccc(NC(=O)c2ccc(CN3CC[C@H](N(C)C)C3)c(C(F)(F)F)c2)cc1Nc1nccc(-c2cncnc2)n1 [Bafetinib]
difference in enhancement of IP-10 and IFN-b between agonists ([1]; Pam3, Pam2 vs cGAMP): ~2 orders of magnitude

COc1cc(CNC(=O)CCCC/C=C/C(C)C)ccc1O [capsaicin]
pro-inflammatory systemic IL-6 and TNF-α levels [3]: reduce

CS[C@@]1(C(=O)Nc2ccc3[nH]nc(-c4ccc(OC(C)C)nc4)c3c2)CCN(CC(=O)N2CC=C(c3ccc(-c4ncn(C)n4)cc3)CC2)C1 [MK-8353]
IFN-b production, modulator+agonist vs agonist alone [1, 4]: ablates
IL-12 production, modulator+agonist vs agonist alone [1, 4]: ablates
IP-10 production, modulator+agonist vs agonist alone [1, 4]: ablates
IL-1b enhancement [1, 5]: up to 100 fold
TNF-α enhancement [1, 5]: up to 100 fold

C=CCc1ccc(O)c(-c2ccc(O)c(CC=C)c2)c1 [honokiol]
pro-inflammatory systemic IL-6 and TNF-α levels [3]: reduce

O=c1cc(-c2cccc3c2Sc2ccccc2S3)oc(N2CCOCC2)c1 [compound 3]
systemic TNF-α for CpG [2]: ~0
